According to patent US10550143B2, “C,O-spiro aryl glycoside compounds, preparation therefor and use thereof” (SHANGHAI INSTITUTE OF MATERIA MEDICA, CHINESE ACADEMY OF …, priority 2015, dated 2020):

What was measured:
SD rats = experiment: Acute single administration, urinary glucose changes in SD rats; format: in vivo, rat; set-up: Urine glucose concentration / The total amount of glucose excreted: unit not given here; conditions: 1 mg/kg oral, after 24 h
Experimental: (1) Acutely Administering Compound to Observed the Urinary Glucose Changes in SD Rats
Thirty-eight male normal SD rats were selected and randomly divided into 5 groups according to body weight and blood glucose, 6-8 in each group. […] After oral gavage, the rats were placed in rats metabolic cages, and urine was collected after 24 h, and the urine volume was recorded, the urine sugar concentration was determined, and urinary sugar content was calculated according to the following formula. Urine content=urinary sugar concentration×urine volume
Glucose levels in urine are measured by the glucose assay kit.
Data were expressed as mean±standard deviation (x±s), and Student's t test was used for statistical analysis of the data, p<0.05 was considered statistically significant.

hSGLT1 = biological target: T1, hSGLT1 (Homo sapiens, UniProt P13866); experiment: In vitro SGLT1 inhibition (hSGLT1 IC50 test); format: cell-based; conditions: read-out: IC50 ± SD SGLT1
T1 sequence (P13866 1-664): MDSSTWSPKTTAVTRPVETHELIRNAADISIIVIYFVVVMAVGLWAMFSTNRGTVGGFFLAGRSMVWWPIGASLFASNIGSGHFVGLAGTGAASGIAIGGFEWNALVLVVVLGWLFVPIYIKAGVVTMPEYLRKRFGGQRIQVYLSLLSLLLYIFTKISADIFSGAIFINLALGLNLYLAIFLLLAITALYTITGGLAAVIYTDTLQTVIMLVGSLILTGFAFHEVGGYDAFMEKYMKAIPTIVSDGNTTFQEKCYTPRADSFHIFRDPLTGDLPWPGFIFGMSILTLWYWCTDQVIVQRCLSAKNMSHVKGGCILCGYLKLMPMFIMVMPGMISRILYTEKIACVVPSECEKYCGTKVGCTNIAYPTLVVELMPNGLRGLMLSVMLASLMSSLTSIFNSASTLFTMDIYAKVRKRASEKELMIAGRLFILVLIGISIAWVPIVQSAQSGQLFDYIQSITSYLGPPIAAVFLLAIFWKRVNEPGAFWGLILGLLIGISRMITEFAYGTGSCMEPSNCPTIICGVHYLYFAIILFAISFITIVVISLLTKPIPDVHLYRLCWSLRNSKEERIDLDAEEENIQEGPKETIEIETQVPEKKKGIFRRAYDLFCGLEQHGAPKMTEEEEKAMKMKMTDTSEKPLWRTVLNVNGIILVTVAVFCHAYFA

[1] = biological target: T2, human sodium-glucose cotransporter 2 (SGLT2) (Homo sapiens, UniProt P31639); experiment: In vitro SGLT2 inhibition, methyl-α-D-[U-14C]glucopyranoside uptake in NIH3T3-hSGLT2 cells; format: cell-based; conditions: for Selectivity: IC50 SGLT1/IC50 SGLT2; for inhibition at 0.01 µM: SGLT2, 10 nM, read-out: % Inhibition rate ± SD 10 nM; for inhibition at 0.1 µM: SGLT2, 100 nM, read-out: % Inhibition rate ± SD 100 nM; for IC50: read-out: IC50 ± SD SGLT2
T2 construct: expressed in transfected cells; host or cells: NIH3T3 (mouse fibroblast) cells expressing hSGLT2
T2 sequence (P31639 1-672): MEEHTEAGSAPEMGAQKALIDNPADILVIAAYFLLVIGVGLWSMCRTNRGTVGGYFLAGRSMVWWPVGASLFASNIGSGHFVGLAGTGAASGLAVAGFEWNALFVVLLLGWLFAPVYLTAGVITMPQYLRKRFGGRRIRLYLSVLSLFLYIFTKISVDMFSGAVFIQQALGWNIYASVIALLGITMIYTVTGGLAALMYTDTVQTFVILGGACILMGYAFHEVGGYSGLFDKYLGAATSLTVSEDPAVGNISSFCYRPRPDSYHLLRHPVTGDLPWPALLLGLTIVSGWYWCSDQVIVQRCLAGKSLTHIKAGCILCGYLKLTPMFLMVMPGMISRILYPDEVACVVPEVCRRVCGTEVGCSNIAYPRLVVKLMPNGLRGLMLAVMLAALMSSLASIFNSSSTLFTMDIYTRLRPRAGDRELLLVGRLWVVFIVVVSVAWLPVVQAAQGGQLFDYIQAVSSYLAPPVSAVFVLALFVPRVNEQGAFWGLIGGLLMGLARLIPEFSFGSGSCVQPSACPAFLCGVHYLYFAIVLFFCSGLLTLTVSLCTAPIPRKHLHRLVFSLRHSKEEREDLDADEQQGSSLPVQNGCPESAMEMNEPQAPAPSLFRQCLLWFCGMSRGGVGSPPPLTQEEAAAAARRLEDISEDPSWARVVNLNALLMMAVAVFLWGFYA
Outline: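 NIH3T3-hSGLT2 cells (40000/well, gelatin-coated, 2 mM sodium butyrate the next day) were preincubated 30 min in KRH-Na+, then given compound plus uptake buffer with methyl-α-D-[U-14C]glucopyranoside and ⅙ mM methyl-α-D-glucopyranoside. Uptake was read by scintillation counting, with KRH-acetylcholine as background.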

Row | IC50 (hSGLT1) | inhibition at 0.01 µM [1] | inhibition at 0.1 µM [1] | IC50 [1] | Compound | The total amount of glucose excreted (SD rats; Table 3) | Urine glucose concentration (SD rats; Table 3) | Urine volume (SD rats; Table 3, in mL) | Selectivity [1] | The total amount of glucose excreted (SD rats; Table 4) | Urine glucose concentration (SD rats; Table 4) | Urine volume (SD rats; Table 4, in mL)
1 | 70.1 ± 7.9 µM | 67.5 ± 5.7% | 91.5 ± 11.7% | 0.0036 ± 0.0007 µM | C[C@H]1O[C@]2(OCc3cc(Cl)c(Cc4ccc(-c5ccc(F)cc5)s4)cc32)[C@H](O)[C@@H](O)[C@@H]1O [Example A31] | 9.41 ± 6.18 | 1.50 ± 0.60 | 33.13 ± 9.99 | 19483 |  |  | 
2 | 1.93 ± 0.16 µM | 31.1 ± 7.4% | 95.4 ± 2.8% | 0.0084 ± 0.0007 µM | CCc1ccc(Cc2cc3c(cc2C)CO[C@]32O[C@H](C)[C@@H](O)[C@H](O)[C@H]2O)s1 [Example A57, (1S,3′R,4′S,5′S,6′R)-5,6′-dimethyl-6-((5-ethylthienzyl)-2-methyl)-3′,4′,5′,6′-tetrahydro-3H-spiro[isobenzofuran-1,2′-pyran]-3′,4′,5′-triol] |  |  |  |  | 786.39 ± 96.43 | 232.39 ± 50.5 | 19.17 ± 2.71

Row | Compound | IC50 (hSGLT1) | inhibition at 0.01 µM [1] | inhibition at 0.1 µM [1] | IC50 [1] | The total amount of glucose excreted (SD rats; Table 3) | Urine glucose concentration (SD rats; Table 3) | Urine volume (SD rats; Table 3, in mL) | Selectivity [1] | The total amount of glucose excreted (SD rats; Table 4) | Urine glucose concentration (SD rats; Table 4) | Urine volume (SD rats; Table 4, in mL)
3 | CCc1ccc(Cc2cc3c(cc2F)CO[C@]32O[C@H](C)[C@@H](O)[C@H](O)[C@H]2O)s1 [Example A42, (1S,3′R,4′S,5′S,6′R)-6′-methyl-6-((5-ethylthienyl)-2-methyl)-5-fluoro-3′,4′,5′,6′-tetrahydro-3H-spiro[isobenzofuran-1,2′-pyran]-3′,4′,5′-triol] | 25.9 ± 4.29 µM | 62.4 ± 11.8% | 104 ± 2.8% | 0.0267 ± 0.002 µM |  |  |  | 988 | 2.56 ± 2.37 | 0.82 ± 0.73 | 18.5 ± 3.51
